Like-named read-outs stand apart in the source and are kept apart here.
What was measured:
[1] = log P determination by HPLC on reversed-phase (C18) columns, OECD Guideline 117; format: physicochemical; details: for chromatographic logP: reversed-phase (C18) HPLC column
Procedure: The log P values were determined in accordance with OECD Guideline 117 (EC Directive 92/69/EEC) by HPLC (high-performance liquid chromatography) using reversed-phase (RP) columns (C18), by the following methods:
[a] The LC-MS determination in the acidic range was carried out at pH 2.7 with 0.1% aqueous formic acid and acetonitrile (contains 0.1% formic acid) as mobile phases; linear gradient from 10% acetonitrile to 95% acetonitrile.
[b] LC-MS determination in the neutral range was carried out at pH 7.8 with 0.001 molar aqueous ammonium hydrogencarbonate solution and acetonitrile as mobile phases; linear gradient from 10% acetonitrile to 95% acetonitrile.

Myzus persicae [2] = experiment: Myzus persicae - spray test (Chinese cabbage leaf discs); format: in vivo; details: after 6 days; for pest or weed control at 500 g/ha: Myzus persicae, foliar, 144 h, read-out: efficacy in % (aphids killed)
Procedure: Myzus persicae—Spray Test
Solvent: 78 parts by weight of acetone • • 1.5 parts by weight of dimethylformamide
Emulsifier: alkylaryl polyglycol ether
To produce a suitable preparation of active compound, 1 part by weight of active compound is dissolved using the specified parts by weight of solvent and made up with water containing an emulsi fier concentration of 1000 ppm until the desired concentration is attained. To produce further test concentrations, the formulation is diluted with emulsifier-containing water.
Discs of Chinese cabbage leaves (Brassica pekinensis) infested by all stages of the green peach aphid (Myzus persicae) are sprayed with an active compound formulation of the desired concentration.
After 6 days, the efficacy in % is determined. 100% means that all the aphids have been killed; 0% means that no aphids have been killed.

Myzus persicae [3] = experiment: Myzus persicae - oral test; format: in vivo; details: after 5 days; for efficacy in % (aphids killed): 20 ppm; for pest or weed control at 20 ppm: Myzus persicae, 120 h, read-out: efficacy in % (aphids killed)
Procedure: Solvent: 100 parts by weight of acetone
Subsequently, the plates are sealed with parafilm, which a mixed population of green peach aphids (Myzus persicae) within a second microtitre plate is able to puncture and imbibe the solution through it.
After 5 days, the efficacy in % is determined. 100% means that all the aphids have been killed; 0% means that no aphids have been killed.

[4] = pH 2.7, HPLC, acidic range pH 2.7, 0.1% aqueous formic acid/acetonitrile, read-out: logp-acidic
[5] = pH 7.8, HPLC, neutral range pH 7.8, 0.001 molar aqueous ammonium hydrogencarbonate/acetonitrile, read-out: logp-neutral
[6] = HPLC, acidic range pH 2.7, 0.1% aqueous formic acid/acetonitrile
[7] = HPLC, neutral range pH 7.8, 0.001 molar aqueous ammonium hydrogencarbonate/acetonitrile

| SMILES | logp-acidic ([1]; pH 2.7) | logp-neutral ([1]; pH 7.8) | efficacy in % (aphids killed) (Myzus persicae [2]; 500 g/ha) [%] | efficacy in % (aphids killed) (Myzus persicae [3]) [%] | further results |
| --- | --- | --- | --- | --- | --- |
| CN(C(=O)c1cnc(-c2ccccn2)n1C)c1cccnc1 [Example 47] |  |  |  |  | chromatographic logP [1, 4]: 0.74; chromatographic logP [1, 5]: 1.16; pest or weed control at 500 g/ha (Myzus persicae [2]; 500 g/ha): 90%; pest or weed control at 20 ppm (Myzus persicae [3]): 100% |
| COc1cc(C#N)cc(-c2ncc(C(=O)N(C)c3cccnc3)n2C)c1 [Example 100] |  |  | 90 | 100 | logp-acidic [1, 6]: 1.34; logp-neutral [1, 7]: 1.57 |
| CN(C(=O)c1cnc(-c2cn(C)nn2)n1C)c1cccnc1 [Example 74] |  |  |  |  | chromatographic logP [1, 4]: 0.27; chromatographic logP [1, 5]: 0.76; pest or weed control at 500 g/ha (Myzus persicae [2]; 500 g/ha): 100%; pest or weed control at 20 ppm (Myzus persicae [3]): 100% |
| CSc1cccc(-c2ncc(C(=O)N(C)c3cccnc3)n2C)c1 [Example 3] | 1.24 | 1.75 | 90 | 100 |  |
| COc1cc(-c2ncc(C(=O)N(C)c3cccnc3)n2C)cnc1OC [Example 93] | 0.66 | 1.28 | 90 | 100 |  |
| CN(C(=O)c1cnc(-c2cc(-c3ccccc3)no2)n1C)c1cccnc1 [Example 71] |  |  |  |  | chromatographic logP [1, 4]: 1.9; chromatographic logP [1, 5]: 2.37; pest or weed control at 500 g/ha (Myzus persicae [2]; 500 g/ha): 100%; pest or weed control at 20 ppm (Myzus persicae [3]): 100% |
| Cc1cc(C)cc(-c2ncc(C(=O)N(C)c3cccnc3)n2C)c1 [Example 8] |  |  |  | 100 | logp-acidic [1, 6]: 1.16; efficacy in % (aphids killed) (Myzus persicae [2]; 100 g/ha): 90% |
| CN(C(=O)c1cnc(-c2cccc(SC(F)(F)F)c2)n1C)c1cccnc1 [Example 17] | 2.00 | 2.28 | 90 | 100 |  |
| CN(C(=O)c1cnc(-c2cc(F)cc(C#N)c2)n1C)c1cccnc1 [Example 60] | 1.21 | 1.52 | 90 | 100 |  |
| CN(C(=O)c1cnc(-c2cccc(C(F)(F)F)n2)n1C)c1cccnc1 [Example 86] | 1.91 | 2.04 | 90 | 100 |  |
| CN(C(=O)c1cnc(-c2cccc3ccoc23)n1C)c1cccnc1 [Example 80] | 0.97 | 1.62 | 100 | 100 |  |
| CN(C(=O)c1cnc(-c2cccn2C)n1C)c1cccnc1 [Example 14] |  |  |  |  | chromatographic logP [1, 4]: 0.62; pest or weed control at 500 g/ha (Myzus persicae [2]; 500 g/ha): 90%; pest or weed control at 20 ppm (Myzus persicae [3]): 100% |
| CN(C(=O)c1cnc(-c2ccc(Cl)c(Cl)c2)n1C)c1cccnc1 [Example 13] |  |  | 90 | 100 | logp-acidic [1, 6]: 1.79 |
| CSc1cc(-c2ncc(C(=O)N(C)c3cccnc3)n2C)ccc1C [Example 23] | 1.43 | 2.03 | 100 | 100 |  |
| CN(C(=O)c1cnc(-c2ccoc2)n1C)c1cccnc1 [Example 15] |  |  | 90 | 100 | logp-acidic [1, 6]: 0.29 |
| COCc1cccc(-c2ncc(C(=O)N(C)c3cccnc3)n2C)c1 [Example 19] |  |  | 90 | 90 | logp-acidic [1, 6]: 0.86; logp-neutral [1, 7]: 1.43 |
| CN(C(=O)c1cnc(-c2cc(C(F)(F)F)cc(C(F)(F)F)c2)n1C)c1cccnc1 [Example 53] | 2.43 | 2.63 | 90 | 100 |  |
| CN(C(=O)c1cnc(-c2cc(C#N)cc(C(F)(F)F)c2)n1C)c1cccnc1 [Example 61] |  |  | 100 | 100 | logp-acidic [1, 6]: 1.85; logp-neutral [1, 7]: 1.96 |
| COc1ccc(-c2ncc(C(=O)N(C)c3cccnc3)n2C)cn1 [Example 103] | 0.58 | 1.25 | 100 | 100 |  |
| CN(C(=O)c1cnc(-c2cc(Cl)cc(C#N)c2)n1C)c1cccnc1 [Example 69] |  |  | 100 | 100 | logp-acidic [1, 6]: 1.52; logp-neutral [1, 7]: 1.74 |
| CN(C(=O)c1cnc(-c2cccnc2)n1C)c1cccnc1 [Example 7] |  |  |  |  | chromatographic logP [1, 4]: 0.18; pest or weed control at 500 g/ha (Myzus persicae [2]; 500 g/ha): 90%; pest or weed control at 20 ppm (Myzus persicae [3]): 100% |
| CN(C(=O)c1cnc(-c2cccc3c2OCC3)n1C)c1cccnc1 [Example 79] | 0.7 |  | 100 | 100 |  |
| CN(C(=O)c1cnc(-c2cccc(C#N)c2)n1C)c1cccnc1 [Example 58] |  |  | 100 | 100 | logp-acidic [1, 6]: 0.91; logp-neutral [1, 7]: 1.33 |

Now from value to compound, other results behind:

| logp-acidic ([1]; pH 2.7) | logp-neutral ([1]; pH 7.8) | SMILES | efficacy in % (aphids killed) (Myzus persicae [2]; 500 g/ha) [%] | efficacy in % (aphids killed) (Myzus persicae [3]) [%] | further results |
| --- | --- | --- | --- | --- | --- |
| 0.8 | 1.54 | COc1ccc(-c2ncc(C(=O)N(C)c3cccnc3)n2C)c(OC)c1 [Example 84] | 100 | 100 |  |
| 0.75 | 1.1 | CN(C(=O)c1cnc(-c2ncccc2Cl)n1C)c1cccnc1 [Example 106] | 90 | 90 |  |
| 0.65 | 1.45 | COc1ccccc1-c1ncc(C(=O)N(C)c2cccnc2)n1C [Example 82] | 100 | 100 |  |
| 1.21 | 1.79 | CC(C)Oc1ccc(-c2ncc(C(=O)N(C)c3cccnc3)n2C)cn1 [Example 102] | 90 | 100 |  |
| 1.90 | 2.14 | CN(C(=O)c1cnc(-c2cc(F)cc(C(F)(F)F)c2)n1C)c1cccnc1 [Example 54] | 90 | 100 |  |
| 1.04 | 1.55 | COC(=O)c1cc(F)ccc1-c1ncc(C(=O)N(C)c2cccnc2)n1C [Example 29] | 90 | 100 |  |
| 1.50 | 1.73 | CCOc1ncc(-c2ncc(C(=O)N(C)c3cccnc3)n2C)cc1C#N [Example 67] | 100 | 100 |  |
| 1.56 | 1.95 | COC(=O)c1cccc2c(-c3ncc(C(=O)N(C)c4cccnc4)n3C)cccc12 [Example 28] | 90 | 100 |  |
| 1.16 | 1.45 | CN(C(=O)c1cnc(-c2cnc(N3CCOCC3)c(C#N)c2)n1C)c1cccnc1 [Example 66] | 90 | 100 |  |
| 1.28 | 1.68 | COc1ncc(-c2ncc(C(=O)N(C)c3cccnc3)n2C)cc1Cl [Example 90] | 90 | 100 |  |
| 1 | 1.26 | COc1cc(-c2ncc(C(=O)N(C)c3cccnc3)n2C)ccn1 [Example 94] | 90 | 100 |  |
